Results published in ChEMBL document CHEMBL4145491, “Bysspectin A, an unusual octaketide dimer and the precursor derivatives from the endophytic fungus Byssochlamys spectabilis IMM0002 and their biological activities” (Eur J Med Chem, 2018).
In brackets after ≈: the same amount, converted by molar mass. Activity calls are given as the source filed them. The rule behind the calls is not given here.

Tests used:
[1] = tested on: Escherichia coli; test: Antibacterial activity against Escherichia coli ATCC 25922 after 24 hrs by broth microdilution method; assay type: functional; conditions: ATCC 25922, 24 h
[2] = tested on: Staphylococcus aureus; test: Antibacterial activity against Staphylococcus aureus ATCC 25923 after 24 hrs by broth microdilution method; assay type: functional; conditions: ATCC 25923, 24 h
[3] = tested on: Staphylococcus epidermidis; test: Antibacterial activity against Staphylococcus epidermidis ATCC 12228 after 24 hrs by broth microdilution method; assay type: functional; conditions: ATCC 12228, 24 h
[4] = tested on: Mycolicibacterium smegmatis; test: Antibacterial activity against Mycobacterium smegmatis MC2 155 ATCC […] after 24 hrs by broth microdilution method; assay type: functional
[5] = tested on: Peritoneal macrophage; test: Anti-inflammatory activity in C57BL6J mouse peritoneal macrophages assessed as inhibition of LPS-induced TNF-alpha secretion at 10 uM after 24 hrs; assay type: functional, cell-based
[6] = molecular target: T1, Tyrosine-protein phosphatase non-receptor type 1 (Homo sapiens) (UniProt P18031); test: Inhibition of recombinant human GST-tagged PTP1B at 10 uM using p-NPP as substrate after 10 mins by spectrophotometric method
T1 sequence (whole entry): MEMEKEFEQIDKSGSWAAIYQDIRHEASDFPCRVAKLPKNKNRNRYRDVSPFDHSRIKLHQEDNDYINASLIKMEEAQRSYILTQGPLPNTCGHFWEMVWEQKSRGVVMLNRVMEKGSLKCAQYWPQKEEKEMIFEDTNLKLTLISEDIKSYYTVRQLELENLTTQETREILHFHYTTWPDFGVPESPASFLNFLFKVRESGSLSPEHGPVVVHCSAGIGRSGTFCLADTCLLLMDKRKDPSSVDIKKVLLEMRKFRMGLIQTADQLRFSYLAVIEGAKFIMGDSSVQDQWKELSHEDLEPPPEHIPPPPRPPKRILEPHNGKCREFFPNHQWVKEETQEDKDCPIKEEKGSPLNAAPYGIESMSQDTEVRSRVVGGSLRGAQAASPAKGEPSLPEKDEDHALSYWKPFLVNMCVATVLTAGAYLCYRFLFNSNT

[7] = tested on: HepG2; test: Protection against acetaminophen-induced cell injury in human HepG2 cells at 10 uM after 24 hrs by MTT assay; assay type: functional, cell-based
[8] = tested on: HCT-8; test: Cytotoxicity against human HCT8 cells after 24 hrs by MTT assay; assay type: functional, cell-based
[9] = tested on: A2780; test: Cytotoxicity against human A2780 cells after 24 hrs by MTT assay; assay type: functional, cell-based
[10] = tested on: BGC-823; test: Cytotoxicity against human BGC823 cells after 24 hrs by MTT assay; assay type: functional, cell-based
[11] = tested on: Bel-7402; test: Cytotoxicity against human Bel7402 cells after 24 hrs by MTT assay; assay type: functional, cell-based
[12] = tested on: A549; test: Cytotoxicity against human A549 cells after 24 hrs by MTT assay; assay type: functional, cell-based
[13] = tested on: Escherichia coli; test: Antibacterial activity against Escherichia coli ATCC 25922 at 30 ug/disk; assay type: functional
[14] = tested on: Staphylococcus aureus; test: Antibacterial activity against Staphylococcus aureus ATCC 25923 at 30 ug/disk; assay type: functional
[15] = tested on: Candida albicans; test: Anti-fungal activity against Candida albicans at 30 ug/disk; assay type: functional
[16] = molecular target: T2, Liver carboxylesterase 1 (Homo sapiens, UniProt P23141); test: Inhibition of CE1 in human liver microsomes using D-Luciferin methyl ester as substrate preincubated for 10 mins followed by substrate addition measured after 10 mins by luminescence assay
T2 sequence (P23141 whole entry): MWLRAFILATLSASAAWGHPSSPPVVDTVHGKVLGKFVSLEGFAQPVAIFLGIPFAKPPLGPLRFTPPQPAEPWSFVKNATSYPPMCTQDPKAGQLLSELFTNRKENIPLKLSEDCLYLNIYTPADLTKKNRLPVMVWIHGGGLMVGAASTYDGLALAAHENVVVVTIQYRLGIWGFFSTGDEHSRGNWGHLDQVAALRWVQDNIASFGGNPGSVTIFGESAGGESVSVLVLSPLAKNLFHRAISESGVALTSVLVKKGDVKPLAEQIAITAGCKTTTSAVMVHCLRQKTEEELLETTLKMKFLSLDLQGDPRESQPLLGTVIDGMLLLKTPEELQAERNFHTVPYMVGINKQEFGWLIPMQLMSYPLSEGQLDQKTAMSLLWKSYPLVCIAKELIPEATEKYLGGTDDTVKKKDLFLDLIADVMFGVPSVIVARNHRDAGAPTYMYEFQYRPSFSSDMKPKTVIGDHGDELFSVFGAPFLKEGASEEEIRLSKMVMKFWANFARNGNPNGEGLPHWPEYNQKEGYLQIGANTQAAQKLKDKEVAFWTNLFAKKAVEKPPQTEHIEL

[17] = molecular target: T3, Cocaine esterase (Homo sapiens, UniProt O00748); test: Inhibition of CE2 in human liver microsomes using fluorescein diacetate as substrate preincubated for 10 mins followed by substrate addition measured after 20 mins by […] assay
T3 sequence (O00748 whole entry): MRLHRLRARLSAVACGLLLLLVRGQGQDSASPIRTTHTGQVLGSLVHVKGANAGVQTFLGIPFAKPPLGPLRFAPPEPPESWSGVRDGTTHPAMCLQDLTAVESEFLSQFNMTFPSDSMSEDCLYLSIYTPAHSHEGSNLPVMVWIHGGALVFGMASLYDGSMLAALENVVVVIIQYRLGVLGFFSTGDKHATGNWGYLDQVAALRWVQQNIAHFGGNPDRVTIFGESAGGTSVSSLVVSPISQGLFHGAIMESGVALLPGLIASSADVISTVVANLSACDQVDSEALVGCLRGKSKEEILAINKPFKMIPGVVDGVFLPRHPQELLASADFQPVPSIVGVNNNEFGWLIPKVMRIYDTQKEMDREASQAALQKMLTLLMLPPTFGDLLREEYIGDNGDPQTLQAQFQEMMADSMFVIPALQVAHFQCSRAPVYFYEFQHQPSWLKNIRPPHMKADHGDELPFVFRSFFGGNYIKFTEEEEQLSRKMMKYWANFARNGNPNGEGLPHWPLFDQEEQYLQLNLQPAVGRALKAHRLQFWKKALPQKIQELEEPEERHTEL

[18] = species on record: Homo sapiens; test: Selectivity ratio of IC50 for inhibition of CE1 in human liver microsomes to IC50 for inhibition of CE2 in human liver microsomes
[19] = molecular target: T4, CE2 (carboxylesterase 2; cocaine esterase) (Homo sapiens, UniProt O00748); test: Potency index, ratio of loperamide IC50 to compound IC50 for inhibition of CE2 in human liver microsomes; conditions: read-out: Ratio IC50
T4 sequence (O00748 whole entry): T3 sequence (O00748 whole entry)

[20] = molecular target: T3, Cocaine esterase; test: Reversible inhibition of CE2 in human liver microsomes up to 120 uM using fluorescein diacetate as substrate preincubated for 10 mins followed by substrate addition measured after 20 mins by […] assay
[21] = molecular target: T3, Cocaine esterase; test: Competitive inhibition of CE2 in human liver microsomes using fluorescein diacetate as substrate preincubated for 10 mins followed by substrate addition measured after 20 mins by Lineweaver-Burk plot analysis

| SMILES | MIC [1] [mg/L] | MIC [2] [mg/L] | inhibition [5] | inhibition [6] | Activity [7] | Activity [8] | Activity [9] | Activity [10] | Activity [11] | Activity [12] | IC50 [16] [µM] | also measured |
| --- | --- | --- | --- | --- | --- | --- | --- | --- | --- | --- | --- | --- |
| CCCCCCC/C=C1\OC(=O)c2c(O)cccc21 | > 128 | > 128 | inactive | inactive | inactive | inactive | inactive | inactive | inactive | inactive | – | MIC [3]: > 128 mg/L; MIC [4]: > 128 mg/L |
| CC1(C)S[C@@H]2[C@H](NC(=O)[C@H](N)c3ccccc3)C(=O)N2[C@H]1C(=O)O [AMPICILLIN] | – | – | – | – | – | – | – | – | – | – | – | zone of inhibition at 30 µg/disc ([13]; read-out: DIZ): 16 to 20 mm; zone of inhibition at 30 µg/disc ([14]; read-out: DIZ): > 20 mm; diameter of the inhibition zone (DIZ) [15]: inactive |
| C[C@H]1COc2c(N3CCN(C)CC3)c(F)cc3c(=O)c(C(=O)O)cn1c23.C[C@H]1COc2c(N3CCN(C)CC3)c(F)cc3c(=O)c(C(=O)O)cn1c23.O [LEVOFLOXACIN] | – | 0.12 | – | – | – | – | – | – | – | – | – | – |
| CCCCCCCCC(=O)c1cccc(O)c1-c1cc2c(C(=O)CCCCCCCC)cccc2o1 | > 128 | > 128 | inactive | inactive | inactive | inactive | inactive | inactive | inactive | inactive | > 100 | MIC [3]: > 128 mg/L; MIC [4]: > 128 mg/L; IC50 [17]: 2.01 µM; Ratio IC50 [18]: > 49.8; selectivity ratio [19]: 2; inhibition (INH) [20]: Active; Ki [21]: 2.34 µM |
| C[C@@H]1[C@H](O)[C@@H](C)/C=C/C=C/C=C/C=C/C=C/C=C/C=C/[C@H](O[C@@H]2O[C@H](C)[C@@H](O)[C@H](N)[C@@H]2O)C[C@@H]2O[C@](O)(C[C@@H](O)C[C@@H](O)[C@H](O)CC[C@@H](O)C[C@@H](O)CC(=O)O[C@H]1C)C[C@H](O)[C@H]2C(=O)O [AMPHOTERICIN B] | – | – | – | – | – | – | – | – | – | – | – | diameter of the inhibition zone (DIZ) [13]: inactive; diameter of the inhibition zone (DIZ) [14]: inactive; zone of inhibition at 30 µg/disc ([15]; read-out: DIZ): > 20 mm |
| O=[N+]([O-])c1ccc(OP(=O)(O)Oc2ccc([N+](=O)[O-])cc2)cc1 | – | – | – | – | – | – | – | – | – | – | 0.21 | – |
| CCCCCCCC[C@@H]1OC(=O)c2c(O)cccc21 [PAECILOCIN A] | – | – | inactive | inactive | inactive | inactive | inactive | inactive | inactive | inactive | > 100 | IC50 [17]: 23.3 µM; Ratio IC50 [18]: > 4.29 |
| CCCCCCCCCc1cccc(O)c1C=O | 32 (≈ 129 µM) | 64 (≈ 258 µM) | inactive | inactive | inactive | inactive | inactive | inactive | inactive | inactive | – | – |
